ChEMBL document CHEMBL1138822, “Bis-quinolinium cyclophanes: toward a pharmacophore model for the blockade of apamin-sensitive SKCa channels in sympathetic neurons” (Bioorg Med Chem Lett, 2004)

Target: Small conductance calcium-activated potassium channel (Rattus norvegicus, UniProt P70604+P70606+P70605)
Test: Inhibition of after hyperpolarization (AHP) of cultured rat sympathetic neurons as SKCa channel blocking activity
Assay type: functional, cell-based
Details: sympathetic neuron

Row | IC50 [nM] | SMILES
1 | 40 | c1ccc2c(c1)c1cc[n+]2CCCC[n+]2ccc(c3ccccc32)NCCCCN1
2 | 190 | [I-].[I-].c1ccc2c(c1)c1cc[n+]2CCCCCCCC[n+]2ccc(c3ccccc32)NCCCCCCCCN1
3 | 12 | c1ccc2c(c1)c1cc[n+]2CCCCC[n+]2ccc(c3ccccc32)NCCCCCCN1
4 | 25 | c1cc2cc(c1)C[n+]1ccc(c3ccccc31)NCCCNc1cc[n+](c3ccccc13)C2
5 | 31 | c1cc2cc(c1)C[n+]1ccc(c3ccccc31)NCCCCCNc1cc[n+](c3ccccc13)C2
6 | 15 | c1ccc2c(c1)c1cc[n+]2CCCC[n+]2ccc(c3ccccc32)NCCCCCN1
7 | 9 | c1ccc2c(c1)c1cc[n+]2CCCCC[n+]2ccc(c3ccccc32)NCCCCN1
8 | 16 | c1ccc2c(c1)c1cc[n+]2CCCCCC[n+]2ccc(c3ccccc32)NCCCCCN1
9 | 30 | c1ccc2c(c1)c1cc[n+]2CCCCC[n+]2ccc(c3ccccc32)NCCCN1
10 | 260 | c1ccc2c(c1)c1cc[n+]2CCCCCCCCCC[n+]2ccc(c3ccccc32)NCCCCCCCCCCN1
11 | 65 | c1ccc2c(c1)c1cc[n+]2CCCCCC[n+]2ccc(c3ccccc32)NCc2ccc(cc2)CN1
12 | 60 | c1ccc2c(c1)c1cc[n+]2CCCCCC[n+]2ccc(c3ccccc32)NCCCCCCN1
13 | 60 | c1ccc2c(c1)c1cc[n+]2CCCCC[n+]2ccc(c3ccccc32)NCc2ccc(cc2)CN1
14 | 35 | c1cc2cc(c1)C[n+]1ccc(c3ccccc31)NCCCCCCNc1cc[n+](c3ccccc13)C2
15 | 150 | c1ccc2c(c1)c1cc[n+]2CCC[n+]2ccc(c3ccccc32)NCc2ccc(cc2)CN1
16 | 630 | c1ccc2c(c1)c1cc[n+]2CCC[n+]2ccc(c3ccccc32)NCCCN1 (stereo in doubt; 2l)
17 | 380 | c1ccc2c(c1)c1cc[n+]2CCC[n+]2ccc(c3ccccc32)NCCCN1 (stereo in doubt; 2m)
18 | 900 | Cc1cc(N)c2ccccc2[n+]1CCCCCCCCCC[n+]1c(C)cc(N)c2ccccc21.[Cl-].[Cl-] [DEQUALINIUM CHLORIDE]

Row | SMILES | IC50 [nM]
19 | [I-].[I-].c1ccc2c(c1)c1cc[n+]2CCCCC[n+]2ccc(c3ccccc32)NCCCCCN1 | 2
